Assay [1] addresses T1, human recombinant serotonin (5-Hydroxytryptamine) 5-HT2A receptor (Homo sapiens, UniProt P28223).
T1 construct: expressed in transfected cells; host or cells: Chinese hamster ovary (CHO-K1) cells
Put plainly: Serotonin 5-HT2A radioligand binding assay ([3H]Ketanserin). The note with it: 0.5 nM [3H]Ketanserin, CHO-K1 cells; for inhibition at 1 µM: compound at 1 μM, read-out: Percent Inhibition of ligand binding, Serotonin (1 μM) 5-HT2A. As for the experimental part:
Compounds of the invention were incubated with 0.5 nM [^3H]Ketanserin for 60 min at 25° C. Non-specific binding was estimated in the presence of 1 μM Mianserin. Receptor proteins were filtered and washed, the filters were then counted to determine [^3H]Ketanserin specifically bound. Compounds were screened at 1 μM or lower, using 1% DMSO as vehicle. Biochemical assay results are presented as the percent inhibition of specific binding in Table 4.

The target in assay [2] is T2, human recombinant histamine H2 receptor (Homo sapiens, UniProt P25021).
T2 construct: expressed in transfected cells; host or cells: Chinese hamster ovary (CHO) K1 cells
The assay is described as follows: Histamine H2 radioligand binding assay ([125I]Aminopotentidine). The note with it: compound at 1 μM; 0.1 nM [125I]Aminopotentidine; receptor expressed in CHO-K1 cells. As for the experimental part:
To evaluate in radioligand binding assays the activity of compounds of the invention, human recombinant histamine H2 receptor expressed in Chinese hamster ovary (CHO) K1 cells (Ruat, M., Proc. Natl. Acad. Sci. USA. 87(5):1658, 1990) in a 50 mM Phosphate buffer, pH 7.4 was used. Compounds of the invention were incubated with 0.1 nM [^125I]Aminopotentidine for 120 min at 25° C. Non-specific binding was estimated in the presence of 3 μM Tiotidine. Receptor proteins were filtered and washed, the filters were then counted to determine [^125I]Aminopotentidine specifically bound. Compounds were screened at 1 μM or lower, using 1% DMSO as vehicle. Biochemical assay results are presented as the percent inhibition of specific binding in Table 2.

In assay [3] the target is human recombinant serotonin (5-Hydroxytryptamine) 5-HT7 receptor (Homo sapiens, UniProt P34969). The assay is described as follows: Serotonin 5-HT7 radioligand binding assay ([3H]LSD). The note with it: compound at 1 μM; 5.5 nM [3H]LSD; CHO cells; read-out: Percent Inhibition of ligand binding, Serotonin (1 μM) 5-HT7. As for the experimental part: Compounds of invention were incubated with 5.5 nM [^3H] Lysergic acid diethylamide (LSD) for 2 h at 25° C. […] Receptor proteins were filtered and washed, the filters were then counted to determine [^3H]LSD specifically bound. Compounds were screened at 1 μM or lower, using 1% DMSO as vehicle. Biochemical assay results are presented as the percent inhibition of specific binding in Table 4.

Assay [4] addresses human recombinant dopamine D2L receptor (Homo sapiens, UniProt P14416). The assay is described as follows: Dopamine D2L radioligand binding assay ([3H]Spiperone). The note with it: compound at 1 μM, 0.16 nM [3H]Spiperone, CHO cells, read-out: Percent Inhibition of ligand binding, Dopamine (1μM). As to the method:
Compounds of the invention were incubated with 0.16 nM [^3H]Spiperone for 120 min at 25° C. Non-specific binding was estimated in the presence of 10 μM Haloperidol. Receptor proteins were filtered and washed, the filters were then counted to determine [^3H]Spiperone specifically bound. Compounds were screened at 1 μM or lower, using 1% DMSO as vehicle. Biochemical assay results are presented as the percent inhibition of specific binding in Table 3.

The target in assay [5] is T3, human recombinant serotonin (5-Hydroxytryptamine) 5-HT6 receptor (Homo sapiens, UniProt P50406).
T3 construct: expressed in transfected cells; host or cells: human HeLa cells
The assay is described as follows: Serotonin 5-HT6 radioligand binding assay ([3H]LSD). The note with it: compound at 1 μM, HeLa cells, read-out: Percent Inhibition of ligand binding, Serotonin (1 μM) 5-HT6. As for the experimental part:
Compounds of the invention were incubated with 1.5 nM [3H]Lysergic acid diethylamide (LSD) for 120 min at 37° C. […] Receptor proteins were filtered and washed, the filters were then counted to determine [3H]LSD specifically bound. Compounds were screened at 1 μM or lower, using 1% DMSO as vehicle. Biochemical assay results are presented as the percent inhibition of specific binding in Table 4.

In assay [6] the target is human recombinant histamine H1 receptor (Homo sapiens, UniProt P35367). The assay is described as follows: Histamine H1 radioligand binding assay ([3H]Pyrilamine). The note with it: compound at 1 μM, receptor expressed in CHO cells. As for the experimental part:
To evaluate in radioligand binding assays the activity of compounds of the invention, human recombinant histamine H1 receptor expressed in Chinese hamster ovary (CHO) cells (De Backer, M. D. et al., Biochem. Biophys. Res. Comm. 197(3):1601, 1993) in a modified Tris-HCl buffer (50 mM Tris-HCl, pH 7.4, 2 mM MgCl2, 100 mM NaCl, 250 mM Sucrose) was used. Compounds of the invention were incubated with 1.2 nM [^3H]Pyrilamine for 180 min at 25° C. Non-specific binding was estimated in the presence of 1 μM pyrilamine Receptor proteins were filtered and washed, the filters were then counted to determine [^3H]Pyrilamine specifically bound. Compounds were screened at 1 μM or lower, using 1% DMSO as vehicle. Biochemical assay results are presented as the percent inhibition of specific binding in Table 2.

Assay [7] has as its target T4, human recombinant serotonin (5-Hydroxytryptamine) 5-HT2C receptor (Homo sapiens, UniProt P28335).
T4 construct: expressed in transfected cells; host or cells: Chinese hamster ovary (CHO-K1) cells
T4 sequence (P28335 33-458): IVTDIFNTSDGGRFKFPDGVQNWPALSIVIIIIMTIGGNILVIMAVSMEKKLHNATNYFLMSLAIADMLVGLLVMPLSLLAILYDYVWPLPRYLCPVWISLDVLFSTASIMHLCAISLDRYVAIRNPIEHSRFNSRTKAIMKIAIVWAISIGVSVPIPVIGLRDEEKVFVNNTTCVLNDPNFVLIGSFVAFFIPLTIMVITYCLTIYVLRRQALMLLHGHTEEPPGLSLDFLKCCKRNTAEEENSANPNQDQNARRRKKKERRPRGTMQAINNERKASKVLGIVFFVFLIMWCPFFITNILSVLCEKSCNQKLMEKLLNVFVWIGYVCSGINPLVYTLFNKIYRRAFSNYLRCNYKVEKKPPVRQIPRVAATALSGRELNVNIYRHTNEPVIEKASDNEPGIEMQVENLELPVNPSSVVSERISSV
The assay is described as follows: Serotonin 5-HT2C radioligand binding assay ([3H]Mesulergine). The note with it: compound at 1 μM; 1 nM [3H]Mesulergine; CHO-K1 cells; read-out: Percent Inhibition of ligand binding, Serotonin (1 μM) 5-HT2C. As to the method:
Compounds of the invention were incubated with 1 nM [^3H]Mesulergine for 60 min at 25° C. Non-specific binding was estimated in the presence of 1 μM Mianserin. Receptor proteins were filtered and washed, the filters were then counted to determine [^3H]Mesulergine specifically bound. Compounds were screened at 1 μM or lower, using 1% DMSO as vehicle. Biochemical assay results are presented as the percent inhibition of specific binding in Table 4.

The target of assay [8] is T5, rat adrenergic α1A receptor (Rattus norvegicus, UniProt P43140).
T5 construct: from tissue; host or cells: Wistar Rat submaxillary glands
T5 sequence (P43140 1-466): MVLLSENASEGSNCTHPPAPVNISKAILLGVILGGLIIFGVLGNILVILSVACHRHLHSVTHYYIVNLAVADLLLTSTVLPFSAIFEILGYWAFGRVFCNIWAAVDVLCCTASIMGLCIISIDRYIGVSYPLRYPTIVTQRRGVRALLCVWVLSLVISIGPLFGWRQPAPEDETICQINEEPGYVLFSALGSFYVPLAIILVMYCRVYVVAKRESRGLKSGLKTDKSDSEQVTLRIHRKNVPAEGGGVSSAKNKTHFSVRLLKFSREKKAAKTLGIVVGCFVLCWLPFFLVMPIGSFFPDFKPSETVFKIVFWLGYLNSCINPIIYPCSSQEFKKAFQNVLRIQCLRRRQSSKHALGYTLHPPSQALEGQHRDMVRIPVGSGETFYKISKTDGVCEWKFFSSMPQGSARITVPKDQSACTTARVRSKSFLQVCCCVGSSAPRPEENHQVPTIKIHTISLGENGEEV
The assay is described as follows: Adrenergic α1A radioligand binding assay ([3H]Prozosin). The note with it: compound at 0.1 μM; 0.25 nM [3H]Prozosin; Wistar Rat submaxillary glands; read-out: Percent Inhibition of ligand binding, Adrenergic (0.1 μM) a1A. As for the experimental part:
To evaluate in radioligand binding assays the activity of compounds of the invention, rat adrenergic α1A receptor obtained from Wistar Rat submaxillary glands (Michel, A. D. et al., Br. J. Pharmacol. 98:883, 1989) in a modified Tris-HCl buffer (50 mM Tris-HCl buffer, pH 7.4, 0.5 mM EDTA) is used. Compounds of the invention are incubated with 0.25 nM [^3H]Prozosin for 60 min at 25° C. Non-specific binding is estimated in the presence of 10 μM phentolamine. Receptor proteins are filtered and washed, the filters are then counted to determine [^3H]Prozosin specifically bound. Compounds of the invention are screened at 1 μM or lower, using 1% DMSO as vehicle. Compounds of the invention are tested in this biochemical assay and percent inhibition of specific binding is determined.

Assay [9] has as its target T6, human recombinant adrenergic α2C receptor (Homo sapiens, UniProt P18825).
T6 construct: expressed in transfected cells; host or cells: insect Sf9 cells
T6 sequence (P18825 1-462): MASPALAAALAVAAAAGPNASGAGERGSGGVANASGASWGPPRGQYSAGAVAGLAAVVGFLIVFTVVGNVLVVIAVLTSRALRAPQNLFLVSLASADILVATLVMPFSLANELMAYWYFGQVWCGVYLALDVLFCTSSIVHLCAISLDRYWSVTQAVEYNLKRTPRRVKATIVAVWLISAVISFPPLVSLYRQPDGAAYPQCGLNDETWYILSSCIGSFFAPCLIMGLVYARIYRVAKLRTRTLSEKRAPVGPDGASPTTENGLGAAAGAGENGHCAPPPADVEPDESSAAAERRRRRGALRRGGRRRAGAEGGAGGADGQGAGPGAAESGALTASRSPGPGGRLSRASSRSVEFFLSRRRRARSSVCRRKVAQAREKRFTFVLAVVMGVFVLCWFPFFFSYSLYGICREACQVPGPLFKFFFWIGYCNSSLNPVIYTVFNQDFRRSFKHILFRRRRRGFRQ
Put plainly: Adrenergic α2C radioligand binding assay ([3H]MK-912). The note with it: compound at 0.1 μM; 1 nM [3H]MK-912; insect Sf9 cells; read-out: Percent Inhibition of ligand binding, Adrenergic (0.1 μM) a2C. As to the method:
To evaluate in radioligand binding assays the activity of compounds of the invention, human recombinant adrenergic α2C receptor expressed in insect Sf9 cells (Uhlen S et al. J. Pharmacol. Exp. Ther. 271:1558, 1994) in a modified Tris-HCl buffer (50 mM Tris-HCl, pH 7.4, 12.5 mM MgCl2, 2 mM EDTA) is used. Compounds of the invention are incubated with 1 nM [^3H]MK-912 for 60 min at 25° C. Non-specific binding is estimated in the presence of 10 μM WB-4101. Receptor proteins are filtered and washed, the filters are then counted to determine [^3H]MK-912 specifically bound. Compounds are screened at 1 μM or lower, using 1% DMSO as vehicle. Compounds of the invention are tested in this biochemical assay and percent inhibition of specific binding is determined.

Each structure is given as a SMILES string.

The text below walks through data of US9255094B2, “Pyrido[4,3-B]indoles and methods of use” (Medivation Technologies, Inc., priority 2009, dated 2016).

T1 sequence (P28223 whole entry): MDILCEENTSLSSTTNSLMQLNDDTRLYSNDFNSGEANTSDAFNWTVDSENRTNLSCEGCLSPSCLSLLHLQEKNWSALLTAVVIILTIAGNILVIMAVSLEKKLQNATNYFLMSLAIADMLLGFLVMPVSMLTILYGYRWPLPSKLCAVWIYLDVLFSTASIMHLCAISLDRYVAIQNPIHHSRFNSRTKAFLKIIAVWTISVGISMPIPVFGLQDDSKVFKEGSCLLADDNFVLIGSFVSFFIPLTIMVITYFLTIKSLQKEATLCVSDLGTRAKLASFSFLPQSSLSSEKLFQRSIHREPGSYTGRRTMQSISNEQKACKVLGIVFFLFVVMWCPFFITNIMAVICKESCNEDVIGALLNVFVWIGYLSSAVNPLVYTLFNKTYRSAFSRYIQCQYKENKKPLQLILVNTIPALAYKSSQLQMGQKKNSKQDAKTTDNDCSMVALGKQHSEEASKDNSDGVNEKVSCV
human recombinant serotonin (5-Hydroxytryptamine) 5-HT7 receptor, sequence (P34969 whole entry): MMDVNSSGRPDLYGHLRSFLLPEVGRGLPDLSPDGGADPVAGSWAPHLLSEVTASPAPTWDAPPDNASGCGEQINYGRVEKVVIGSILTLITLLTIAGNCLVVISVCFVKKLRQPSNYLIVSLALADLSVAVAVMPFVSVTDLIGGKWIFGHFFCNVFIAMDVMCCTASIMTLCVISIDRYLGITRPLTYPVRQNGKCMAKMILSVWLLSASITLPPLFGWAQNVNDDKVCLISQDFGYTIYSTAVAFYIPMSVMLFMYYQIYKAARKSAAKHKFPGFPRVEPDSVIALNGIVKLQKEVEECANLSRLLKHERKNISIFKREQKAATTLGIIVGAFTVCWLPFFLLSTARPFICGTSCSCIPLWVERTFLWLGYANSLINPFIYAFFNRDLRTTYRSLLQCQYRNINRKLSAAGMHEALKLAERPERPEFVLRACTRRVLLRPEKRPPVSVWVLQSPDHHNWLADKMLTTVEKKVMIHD
human recombinant histamine H1 receptor, sequence (P35367 whole entry): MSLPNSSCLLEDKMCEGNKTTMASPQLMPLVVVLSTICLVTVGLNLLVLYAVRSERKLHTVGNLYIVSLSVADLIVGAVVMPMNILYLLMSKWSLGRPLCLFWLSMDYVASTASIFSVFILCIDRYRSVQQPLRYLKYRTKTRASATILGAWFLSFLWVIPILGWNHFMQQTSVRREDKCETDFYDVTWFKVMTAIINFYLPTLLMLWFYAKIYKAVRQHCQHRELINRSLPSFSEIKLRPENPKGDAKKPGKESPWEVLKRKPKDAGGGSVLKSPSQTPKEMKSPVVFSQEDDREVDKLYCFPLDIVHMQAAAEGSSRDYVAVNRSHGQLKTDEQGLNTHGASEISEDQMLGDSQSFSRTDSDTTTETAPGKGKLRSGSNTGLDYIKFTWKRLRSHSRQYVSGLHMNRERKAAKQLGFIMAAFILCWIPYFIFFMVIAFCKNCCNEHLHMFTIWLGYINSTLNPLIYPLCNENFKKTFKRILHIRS
T3 sequence (P50406 whole entry): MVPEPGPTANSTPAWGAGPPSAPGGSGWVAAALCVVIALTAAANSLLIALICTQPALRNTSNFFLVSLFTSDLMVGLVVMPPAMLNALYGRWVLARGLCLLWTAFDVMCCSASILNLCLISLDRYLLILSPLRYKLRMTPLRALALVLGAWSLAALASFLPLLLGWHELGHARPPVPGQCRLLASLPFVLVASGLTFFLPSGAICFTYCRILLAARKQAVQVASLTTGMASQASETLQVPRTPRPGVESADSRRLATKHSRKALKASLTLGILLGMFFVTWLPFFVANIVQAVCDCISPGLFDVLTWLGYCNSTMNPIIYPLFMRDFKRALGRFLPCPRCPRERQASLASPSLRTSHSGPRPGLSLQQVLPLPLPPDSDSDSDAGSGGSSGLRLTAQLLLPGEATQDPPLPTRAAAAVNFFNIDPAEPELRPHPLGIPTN
T2 sequence (P25021 whole entry): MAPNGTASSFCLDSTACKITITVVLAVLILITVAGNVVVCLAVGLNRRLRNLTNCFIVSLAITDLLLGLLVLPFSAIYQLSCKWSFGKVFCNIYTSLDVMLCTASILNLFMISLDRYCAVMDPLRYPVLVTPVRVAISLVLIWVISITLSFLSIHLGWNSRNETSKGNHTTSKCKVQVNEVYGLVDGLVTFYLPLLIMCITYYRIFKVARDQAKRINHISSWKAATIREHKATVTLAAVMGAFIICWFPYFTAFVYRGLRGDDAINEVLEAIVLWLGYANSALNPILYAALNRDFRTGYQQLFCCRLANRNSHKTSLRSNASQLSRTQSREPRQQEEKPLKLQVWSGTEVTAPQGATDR
human recombinant dopamine D2L receptor, sequence (P14416 whole entry): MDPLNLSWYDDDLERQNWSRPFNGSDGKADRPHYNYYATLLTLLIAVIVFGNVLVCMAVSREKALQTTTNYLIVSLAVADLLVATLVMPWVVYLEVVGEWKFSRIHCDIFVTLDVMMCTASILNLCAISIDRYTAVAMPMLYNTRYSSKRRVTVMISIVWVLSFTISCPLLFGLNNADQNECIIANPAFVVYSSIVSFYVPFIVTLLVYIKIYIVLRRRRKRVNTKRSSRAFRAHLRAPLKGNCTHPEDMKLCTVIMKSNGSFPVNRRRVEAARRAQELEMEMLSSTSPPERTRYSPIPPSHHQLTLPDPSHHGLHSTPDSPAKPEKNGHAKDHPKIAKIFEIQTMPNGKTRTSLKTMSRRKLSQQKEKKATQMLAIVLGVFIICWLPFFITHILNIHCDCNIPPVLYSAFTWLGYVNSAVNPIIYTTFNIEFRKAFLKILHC

`Cc1ccc2c(c1)c1c(n2CCc2ccc(C)nc2)CCN(CCCCO)C1` [Compound 1-43, 4-(8-methyl-5-(2-(6-methylpyridin-3-yl)ethyl)-3,4-dihydro-1H-pyrido[4,3-b]indol-2(5H)-yl)butan-1-ol]: the inhibition at 1 µM amounted to 47% in assay [1]; 21% in assay [2]; 66% in assay [3]; 10% in assay [4]; 22% in assay [5]; 97% in assay [6]. Moreover, the inhibition at 1 µM in [7] is 49%.

Consider `CN1CCc2c(c3cccc(Cl)c3n2CC(C)(O)c2ccncc2)C1` (stereo not shown) [Compound 1-10, 1-(6-chloro-2-methyl-3,4-dihydro-1H-pyrido[4,3-b]indol-5(2H)-yl)-2-(pyridin-4-yl)propan-2-ol], for which, in [1], the inhibition at 1 µM came to 91%. In addition, the inhibition at 0.1 µM was -8% in assay [8] and 19% in assay [9].

As for `COc1ccc([C@@](C)(O)Cn2c3c(c4cc(C)ccc42)CN(C)CC3)cc1` [Compound 1-19, (R)-1-(2,8-Dimethyl-3,4-dihydro-1H-pyrido[4,3-b]indol-5(2H)-yl)-2-(4-methoxyphenyl)propan-2-ol], the inhibition at 0.1 µM was found to be 98% in [1] (compound at 0.1 μM, read-out: Percent Inhibition of ligand binding, Serotonin (0.1 μM) 5-HT2A); 20% in assay [8]; 16% in [9].
